Test results: the supplement of paper PMC9780213

How the values were obtained:
Details in all cases: treatment time: 24 h
U2OS = test: cell count relative to DMSO control (panel A, nuclei/RNA/PMG/mitochondria stain) (fraction of control); higher = more cells (less toxicity)
Description: (§1)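 U2OS-derived cells in 384-well plates were treated for 24 h with a 7-point 2-fold dilution series (top dose 20 µM for most compounds; final max DMSO 1%), then fixed, stained in four marker panels and imaged on a Cellomics ArrayScan. Cell count per treatment (three replicate plates merged) is given as a fraction of DMSO control. Panel A used parental U2OS, panel B U2OS-mOrange2-Peroxisome, panel C1 U2OS-LMNB1-TUBA1B-ACTB (DRAQ5 nuclei).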

U2OS-LMNB1-TUBA1B-ACTB = test: cell count relative to DMSO control (panel C1, DRAQ5/ER stain) (fraction of control); higher = more cells (less toxicity)
Description: as §1

U2OS-mOrange2-Peroxisome = test: cell count relative to DMSO control (panel B, lysosome/peroxisome/lipid stain) (fraction of control); higher = more cells (less toxicity)
Description: as §1

Row | Compound | cell count (U2OS; 0.3125 µM) | cell count (U2OS; 0.625 µM) | cell count (U2OS; 1.25 µM) | cell count (U2OS; 2.5 µM) | cell count (U2OS; 5 µM) | cell count (U2OS; 10 µM) | cell count (U2OS; 20 µM) | cell count (U2OS-LMNB1-TUBA1B-ACTB; 0.3125 µM) | cell count (U2OS-LMNB1-TUBA1B-ACTB; 0.625 µM) | cell count (U2OS-LMNB1-TUBA1B-ACTB; 1.25 µM) | cell count (U2OS-LMNB1-TUBA1B-ACTB; 2.5 µM) | cell count (U2OS-LMNB1-TUBA1B-ACTB; 5 µM) | cell count (U2OS-LMNB1-TUBA1B-ACTB; 10 µM) | cell count (U2OS-LMNB1-TUBA1B-ACTB; 20 µM) | cell count (U2OS-mOrange2-Peroxisome; 0.3125 µM) | cell count (U2OS-mOrange2-Peroxisome; 0.625 µM) | cell count (U2OS-mOrange2-Peroxisome; 1.25 µM) | cell count (U2OS-mOrange2-Peroxisome; 2.5 µM) | cell count (U2OS-mOrange2-Peroxisome; 5 µM) | cell count (U2OS-mOrange2-Peroxisome; 10 µM) | cell count (U2OS-mOrange2-Peroxisome; 20 µM) | cell count (U2OS; 0.15625 µM) | cell count (U2OS-LMNB1-TUBA1B-ACTB; 0.15625 µM) | cell count (U2OS-mOrange2-Peroxisome; 0.15625 µM) | cell count (U2OS; 0.07812 µM) | cell count (U2OS-LMNB1-TUBA1B-ACTB; 0.07812 µM) | cell count (U2OS-mOrange2-Peroxisome; 0.07812 µM)
1 | O=C(Oc1cc(S(=O)(=O)c2ccccc2)ccc1[N+](=O)[O-])c1ccc(Cl)cc1 | 1.05 | 1.08 | 1.11 | 1.06 | 0.997 | 0.944 | 0.966 | 1.05 | 1.06 | 0.969 | 0.953 | 0.983 | 1.13 | 0.989 | 0.726 | 0.838 | 0.873 | 1.02 | 1.08 | 1.26 | 0.846 |  |  |  |  |  | 
2 | CO[C@@]12[C@H](COC(N)=O)C3=C(C(=O)C(C)=C(N)C3=O)N1C[C@@H]1N[C@@H]12 [mitomycin-c] | 0.677 | 0.708 | 0.683 | 0.639 | 0.59 | 0.531 | 0.278 | 0.882 | 0.789 | 0.864 | 0.812 | 0.746 | 0.672 | 0.38 | 0.696 | 0.65 | 0.706 | 0.72 | 0.6 | 0.363 | 0.279 |  |  |  |  |  | 
3 | O=C(CCCCCCC(=O)Nc1ccccc1)NO [vorinostat] | 1.12 | 1.1 | 0.993 | 1.03 | 1.02 | 0.899 | 0.304 | 1.1 | 1.02 | 0.995 | 0.911 | 1.01 | 0.794 | 0.208 | 0.929 | 1.04 | 0.893 | 1.13 | 0.926 | 0.812 | 0.292 |  |  |  |  |  | 
4 | O=C(/C=C/c1cccc(S(=O)(=O)Nc2ccccc2)c1)NO [belinostat] | 1.07 | 1.03 | 1.1 | 1.07 | 1.04 | 0.557 | 0.351 | 1.04 | 1.04 | 1.02 | 0.99 | 1.09 | 0.701 | 0.397 | 0.814 | 0.805 | 1.05 | 1.14 | 1.19 | 1.18 | 0.581 |  |  |  |  |  | 
5 | NS(=O)(=O)C#Cc1ccccc1 [pifithrin-mu] | 1.07 | 1.11 | 1.05 | 0.983 | 0.953 | 1.05 |  | 1.09 | 1.06 | 1.08 | 1.07 | 1.1 | 0.97 |  | 1.02 | 0.981 | 0.941 | 1.08 | 1.02 | 1.13 |  | 1.06 | 1.14 | 1.01 |  |  | 
6 | CCCCCCCC(=O)N[C@H](CN1CCCC1)[C@H](O)c1ccc2c(c1)OCCO2 [eliglustat] | 0.927 | 0.977 | 0.988 | 1.01 | 1.1 | 1.01 | 0.973 | 1.08 | 1.13 | 1.13 | 1.08 | 1.09 | 1.07 | 1.02 | 1.25 | 0.795 | 0.804 | 0.767 | 0.889 | 0.945 | 1.12 |  |  |  |  |  | 
7 | C=CCNC1=C2C[C@@H](C)C[C@H](OC)[C@H](O)[C@@H](C)/C=C(\C)[C@H](OC(N)=O)[C@@H](OC)/C=C\C=C(/C)C(=O)NC(=CC1=O)C2=O [tanespimycin] | 0.929 | 0.901 | 0.686 | 0.307 | 0.0406 |  |  | 1.06 | 0.956 | 0.938 | 0.501 | 0.0736 |  |  | 0.767 | 0.7 | 0.405 | 0.144 | 0.148 |  |  | 0.976 | 1.03 | 0.803 | 1 | 1.06 | 1.48
8 | CC(C)n1c(/C=C/C(O)CC(O)CC(=O)O)c(-c2ccc(F)cc2)c2ccccc21 (stereo not drawn) [fluvastatin] | 0.901 | 0.848 | 0.867 | 0.777 | 0.826 | 0.702 | 0.441 | 1.01 | 0.939 | 0.943 | 0.931 | 0.899 | 0.892 | 0.849 | 0.991 | 0.839 | 0.835 | 0.93 | 0.815 | 0.872 | 0.22 |  |  |  |  |  | 
